From PubChem BioAssay AID248 (DTP/NCI, 2004)
Toxic doses and inconclusive results are not listed. Cut-off read from the data, not from the text of the source: active = T/C of 150% or more; inactive = T/C below 125%.

Test system: L1210 leukemia ip in BDF1 mice, survival T/C
Test: NCI In Vivo Anticancer Drug Screen. Data for tumor model L1210 Leukemia (intraperitoneal) in B6D2F1 (BDF1) mice
Conditions: endpoint: mean survival time, higher = longer survival
Summary of the method: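 Antitumor effect is assessed in tumor-bearing animals. Survival in the compound arm is compared with a vehicle-dosed control arm and expressed as their quotient.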

[1] = dose: 25.0 mg/kg/injection, schedule: Q04DX003 (ip), vehicle: saline with Tween-80
[2] = dose: 50.0 mg/kg/injection, schedule: Q04DX003 (ip), vehicle: saline with Tween-80
[3] = dose: 100.0 mg/kg/injection, schedule: Q04DX003 (ip), vehicle: Klucel (hydroxypropylcellulose) (HPC)
[4] = dose: 100.0 mg/kg/injection, schedule: Q04DX003 (ip), vehicle: saline with Tween-80
[5] = dose: 200.0 mg/kg/injection, schedule: Q04DX003 (ip), vehicle: Klucel (hydroxypropylcellulose) (HPC)
[6] = dose: 400.0 mg/kg/injection, schedule: Q04DX003 (ip), vehicle: Klucel (hydroxypropylcellulose) (HPC)
[7] = dose: 50.0 mg/kg/injection, schedule: Q01DX009 (ip), vehicle: saline
[8] = dose: 100.0 mg/kg/injection, schedule: Q01DX009 (ip), vehicle: saline
[9] = dose: 100.0 mg/kg/injection, schedule: Q04DX003 (ip), vehicle: saline
[10] = dose: 200.0 mg/kg/injection, schedule: Q04DX003 (ip), vehicle: saline
[11] = dose: 400.0 mg/kg/injection, schedule: Q04DX003 (ip), vehicle: saline
[12] = dose: 100.0 mg/kg/injection, schedule: Q01DX001 (ip), vehicle: saline
[13] = dose: 200.0 mg/kg/injection, schedule: Q01DX001 (ip), vehicle: saline
[14] = dose: 400.0 mg/kg/injection, schedule: Q01DX001 (ip), vehicle: saline
[15] = dose: 200.0 mg/kg/injection, schedule: Q04DX003 (ip), vehicle: saline with Tween-80
[16] = dose: 400.0 mg/kg/injection, schedule: Q04DX003 (ip), vehicle: saline with Tween-80
[17] = dose: 100.0 mg/kg/injection, schedule: Q01DX009 (ip), vehicle: saline with Tween-80
[18] = dose: 200.0 mg/kg/injection, schedule: Q01DX009 (ip), vehicle: saline with Tween-80
[19] = dose: 400.0 mg/kg/injection, schedule: Q01DX009 (ip), vehicle: saline with Tween-80
[20] = dose: 100.0 mg/kg/injection, schedule: Q01DX009 (ip), vehicle: Klucel (hydroxypropylcellulose) (HPC)
[21] = dose: 200.0 mg/kg/injection, schedule: Q01DX009 (ip), vehicle: Klucel (hydroxypropylcellulose) (HPC)
[22] = dose: 200.0 mg/kg/injection, schedule: Q01DX009 (ip), vehicle: saline

Measured: T/C

NC(=O)N/N=C\c1ccco1
inactive: [1] 106 % of control | [2] 100 % of control | [3] 106 % of control | [4] 94 % of control | [5] 102 % of control | [6] 98 % of control

ClC12CCC(Cl)(CC1)C2(Cl)Cl
inactive: dose: 25.0 mg/kg/injection, schedule: Q01DX009 (ip), vehicle: saline 95 % of control | [7] 103 % of control | [8] 96 % of control | [9] 98 % of control | [10] 95 % of control | [11] 98 % of control

CCOC(=O)C(C#N)=C([SH2+])[SH2+].CCOC(=O)C(C#N)=C([SH2+])[SH2+].[Cu+2].c1ccc(C[P+](c2ccccc2)(c2ccccc2)c2ccccc2)cc1
inactive: [12] 92 % of control | [9] 102 % of control | [13] 87 % of control | [10] 97 % of control | [14] 89 % of control | [11] 91 % of control

CCCCNC(=O)CS(=O)(=O)c1ccc(Cl)cc1
inactive: [4] 94 % of control | [15] 100 % of control | [16] 94 % of control

CCCCCCCCCCCCCC(=O)OCC(OC(=O)CCCCCCCCCCCCC)C(OC(=O)CCCCCCCCCCCCC)C(OC(=O)CCCCCCCCCCCCC)C(C=O)OC(=O)CCCCCCCCCCCCC (configuration not stated)
inactive: dose: 100.0 mg/kg/injection, schedule: Q01DX001 (ip), vehicle: other 90 % of control | dose: 200.0 mg/kg/injection, schedule: Q01DX001 (ip), vehicle: other 97 % of control | dose: 400.0 mg/kg/injection, schedule: Q01DX001 (ip), vehicle: other 92 % of control

CC(C)COC(=O)c1cc(O)c(O)c(O)c1
inactive: [17] 100 % of control | [4] 97 % of control | [18] 107 % of control | [15] 105 % of control | [19] 107 % of control | [16] 95 % of control

Cc1ccc(NC(=O)/C=N/O)cc1C
inactive: [12] 104 % of control | [13] 102 % of control | [14] 90 % of control

CCOc1ccc(C(=O)Nc2c(C)cc(C)cc2C)cc1
inactive: [17] 96 % of control | [4] 100 % of control | [18] 96 % of control | [15] 93 % of control | [19] 101 % of control | [16] 94 % of control

O=C(Oc1ccccc1)c1cc(Br)c2ccccc2c1O
inactive: [17] 96 % of control | [3] 89 % of control | [18] 95 % of control | [5] 97 % of control | [19] 93 % of control | [6] 87 % of control

Cc1ccc(S(=O)(=O)OC/C(=C(/c2ccccc2)c2ccc(Cl)cc2)c2ccccc2)cc1
inactive: dose: 6.25 mg/kg/injection, schedule: Q04DX003 (ip), vehicle: saline with Tween-80 96 % of control | dose: 12.5 mg/kg/injection, schedule: Q04DX003 (ip), vehicle: saline with Tween-80 98 % of control | [1] 95 % of control

CCCCCCCCN1N=CC(CC)C1CCC (configuration not stated)
inactive: dose: 50.0 mg/kg/injection, schedule: Q01DX001 (ip), vehicle: carboxymethylcellulose (CMC) 105 % of control | dose: 100.0 mg/kg/injection, schedule: Q01DX001 (ip), vehicle: carboxymethylcellulose (CMC) 88 % of control | dose: 200.0 mg/kg/injection, schedule: Q01DX001 (ip), vehicle: carboxymethylcellulose (CMC) 92 % of control

CCCC(C)OP(=O)(OC(C)CC)OC(C)CC (configuration not stated)
inactive: [20] 97 % of control | [21] 97 % of control

CCC1(C)OC(=O)NC1=O (configuration not stated)
inactive: dose: 50.0 mg/kg/injection, schedule: Q01DX009 (ip), vehicle: saline with Tween-80 96 % of control | [17] 101 % of control | [18] 86 % of control

CCCCCCCC(C)NCCOC(=O)c1ccc(N)cc1 (configuration not stated)
inactive: dose: 75.0 mg/kg/injection, schedule: Q01DX001 (ip), vehicle: other 117 % of control | dose: 150.0 mg/kg/injection, schedule: Q01DX001 (ip), vehicle: other 101 % of control

CC1(N)CCOC1=O (configuration not stated)
inactive: [8] 93 % of control | [22] 93 % of control | dose: 400.0 mg/kg/injection, schedule: Q01DX009 (ip), vehicle: saline 93 % of control

OCC1COc2ccccc2O1 (configuration not stated)
inactive: [9] 101 % of control | [10] 106 % of control | [11] 103 % of control

CCC(C)(O)C#CC(C)(O)CC (configuration not stated)
inactive: [12] 100 % of control | [8] 101 % of control | [9] 105 % of control | [13] 106 % of control | [22] 100 % of control | [10] 105 % of control | [14] 102 % of control | [11] 100 % of control

CCOC(=O)NCCN(C)C
inactive: [7] 105 % of control | [8] 102 % of control | [9] 99 % of control | [22] 108 % of control | [10] 102 % of control

O=S(=O)(ON=C1C=CC(=NOS(=O)(=O)c2ccccc2)C=C1)c1ccccc1
inactive: dose: 50.0 mg/kg/injection, schedule: Q01DX001 (ip), vehicle: saline 96 % of control | [12] 93 % of control | [13] 93 % of control | [14] 93 % of control

CCCCCCCCCCCCCCCSc1ccc(Br)cc1
inactive: [4] 97 % of control | [15] 102 % of control | [16] 94 % of control

CC(=O)NC(c1ccccc1)C(NC(=O)c1ccccc1)c1ccccc1 (configuration not stated)
inactive: dose: 100.0 mg/kg/injection, schedule: Q01DX001 (ip), vehicle: saline with Tween-80 92 % of control | dose: 200.0 mg/kg/injection, schedule: Q01DX001 (ip), vehicle: saline with Tween-80 94 % of control | dose: 400.0 mg/kg/injection, schedule: Q01DX001 (ip), vehicle: saline with Tween-80 89 % of control

Clc1ccc(/C=C/c2ccc3ccccc3n2)cc1
inactive: dose: 75.0 mg/kg/injection, schedule: Q01DX Z (ip), vehicle: carboxymethylcellulose (CMC) 96 % of control | dose: 113.0 mg/kg/injection, schedule: Q01DX Z (ip), vehicle: carboxymethylcellulose (CMC) 90 % of control | dose: 170.0 mg/kg/injection, schedule: Q01DX Z (ip), vehicle: carboxymethylcellulose (CMC) 88 % of control | dose: 255.0 mg/kg/injection, schedule: Q01DX Z (ip), vehicle: carboxymethylcellulose (CMC) 88 % of control

COc1ccc(OC)c(NC(=S)N/N=C(/C)c2cc([N+](=O)[O-])c(O)cc2O)c1
inactive: dose: 12.5 mg/kg/injection, schedule: Q04DX002 (ip), vehicle: Klucel (hydroxypropylcellulose) (HPC) 102 % of control | dose: 25.0 mg/kg/injection, schedule: Q04DX002 (ip), vehicle: Klucel (hydroxypropylcellulose) (HPC) 102 % of control | dose: 50.0 mg/kg/injection, schedule: Q04DX002 (ip), vehicle: Klucel (hydroxypropylcellulose) (HPC) 105 % of control

NNC(=O)CCc1ccccc1Br
inactive: [4] 99 % of control | [15] 92 % of control

CC(=O)Nc1ccccc1SC(C)=O
inactive: dose: 100.0 mg/kg/injection, schedule: Q04DX003 (ip), vehicle: other 88 % of control

OCc1ccc(O)cn1
inactive: [12] 97 % of control | [13] 87 % of control | [14] 94 % of control

CCCCCCCCC(CCCCCCCC)CC1CC2CC1C1CCCC21 (configuration not stated)
inactive: dose: 75.0 mg/kg/injection, schedule: Q01DX001 (ip), vehicle: saline with Tween-80 92 % of control | dose: 150.0 mg/kg/injection, schedule: Q01DX001 (ip), vehicle: saline with Tween-80 98 % of control | dose: 300.0 mg/kg/injection, schedule: Q01DX001 (ip), vehicle: saline with Tween-80 95 % of control

C#CCONC(=O)c1ccc(OC)cc1
inactive: dose: 25.0 mg/kg/injection, schedule: Q01DX009 (ip), vehicle: carboxymethylcellulose (CMC) 98 % of control | dose: 50.0 mg/kg/injection, schedule: Q01DX009 (ip), vehicle: carboxymethylcellulose (CMC) 98 % of control | dose: 100.0 mg/kg/injection, schedule: Q01DX009 (ip), vehicle: carboxymethylcellulose (CMC) 96 % of control

CC1(c2ccc(Cl)cc2)NC(=O)NC1=O (configuration not stated)
inactive: dose: 50.0 mg/kg/injection, schedule: Q01DX009 (ip), vehicle: Klucel (hydroxypropylcellulose) (HPC) 97 % of control | [20] 101 % of control | [21] 94 % of control

COC1=NCCCCC1
inactive: [2] 94 % of control | [4] 99 % of control | [15] 91 % of control
